Data reported in article PMC10795032 (ACS Omega, 2024).

Tests used:
Assay type in all cases: cell-based, human
p62/SQSTM1 = experiment: Western blot, autophagic flux marker p62/SQSTM1; details: U87-MG, 5 μM, 24 h
U87-MG cells [1] = experiment: Annexin V-FITC/PI flow cytometry apoptosis assay; details: 5 μM, 24 h
p-mTOR = experiment: Western blot, phosphorylation of mTOR; details: U87-MG, 5 μM, 24 h
LC3 = experiment: Western blot, LC3-I to LC3-II conversion; details: U87-MG, 24 h
cleaved caspase-3 = experiment: Western blot, cleaved caspase-3; details: U87-MG, 5 μM, 24 h
U87-MG cells [2] = details: 5 μM with 20 μM CQ, 24 h, CCK-8
pAKT = experiment: Western blot, phosphorylation of AKT; details: U87-MG, 5 μM, 24 h

Structure (SMILES): COc1cc2ncnc(Nc3ccc(F)c(Cl)c3)c2cc1OCCCN1CCOCC1 [Gefitinib]
- expression of p62 (p62/SQSTM1): partially downregulate
- apoptosis rate (Annexin-V-positive cells) (U87-MG cells [1]): 44.16%
- phosphorylation of mTOR (p-mTOR): potent in inhibiting
- conversion of LC3-II on co-incubation with CQ (LC3; 5 μM with 20 μM CQ): significantly increases
- conversion of LC3-I to LC3-II (LC3; 5 μM): able to induce autophagy
- cleaved caspase-3 expression (cleaved caspase-3): cleaved caspase-3 expression can be seen
- increase in cell death along with CQ compared with treated alone (U87-MG cells [2]): 2.09%
- phosphorylation of AKT (pAKT): potent in inhibiting
